{"source": "patent US20220267753A1", "about": "“RATIONAL THERAPEUTIC TARGETING OF ONCOGENIC IMMUNE SIGNALING STATES IN MYELOID MALIGNANCIES VIA THE UBIQUITIN CONJUGATING ENZYME UBE2N” (CHILDREN'S HOSPITAL MEDICAL CENTER, priority 2019, published 2022)", "key": {"MOLM-13 cells": {"system": "MOLM-13 cells", "assay": "Ubiquitin-enrichment screen by mass spectrometry", "format": "cell-based, human", "details": "2 μM", "experimental": "Details of the ubiquitin-enrichment screen are described herein. Briefly, MOLM-13 cells were treated for 24 hr. with 2 μM of UC-764864. Ubiquitin-related peptide enrichment was performed by using ubiquitin remnant motif (K-ε-GG) antibody-conjugated beads (Cell Signaling Technology, Danvers, Mass.) following the manufacturer's instructions. Tryptic peptides were loaded onto the beads, and then ubiquitin-conjugated peptides were eluted from the bead. Nanoliquid chromatography coupled to electrospray tandem mass spectrometry (nanoLC-ESI-MS/MS) analyses were performed on a TripleTof 5600+ mass spectrometer (Sciex; Concord, Ontario, Canada) coupled with a nanoLC-ultra nanoflow system (Eksigent; Dublin, Calif.) in data dependent acquisition (DDA) or data independent acquisition (DIA) modes for Sequential Window Acquisition of all Theoretical mass spectra (SWATH-MS) analysis.\nMOLM-13 cells were treated for 24 hours with 2 μM of UC-764864. […] To reduce redundant peptide sequencing, former MS/MS-analyzed candidate ions were excluded after its first occurrence for 12 s. The DDA data was recorded using Analyst-1T (v.1.7) software. […]"}, "UBE2N wild type": {"molecular_target": "T1, UBE2N wild type (Homo sapiens, UniProt P61088)", "T1 construct": "purchased Life sensors UB218", "T1 sequence (P61088 1-152)": "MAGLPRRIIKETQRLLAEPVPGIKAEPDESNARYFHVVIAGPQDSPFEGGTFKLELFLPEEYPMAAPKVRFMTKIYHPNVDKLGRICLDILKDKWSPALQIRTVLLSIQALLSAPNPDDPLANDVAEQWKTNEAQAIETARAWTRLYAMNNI", "assay": "Differential scanning fluorimetry (DSF)", "format": "binding", "details": "recombinant UBE2N protein", "experimental": "(§1) Recombinant UBE2N (2 .tg; Life sensors #UB218) in 3 .tl of buffer containing 20 mM Tris-HCl pH 7.4, 10 mM DTT, 10% glycerol, 150 mM NaCl and 0.02% DMSO as well as six samples of 1 .tg UBE2N mixed with 0.2 .tg of UC-764864 or UC-764865 were diluted to 50 ng/uL in 0.1% formic acid (FA) in preparation of MALDI-TOF analysis. Two .tl aliquots from the samples were used to make a 1:5 dilution with MALDI matrix (5 mg/mL sinapic acid in 60% ACN/0.1% formic acid) with 1 .tL spotted onto the target plate for analysis. For UBE2N C87S mutant, recombinant protein was purchased from Genescript. 2 micrograms of protein as well as 3 samples of UBE2N C87S were mixed with 0.4 micrograms of UC-764864 and UC-764865 in 10 microliters of buffer containing 20 mM Tris HCl pH 7.4, 1 mM DTT, 150 mM NaCl and ˜0.01% of DMSO in each sample. All mixtures were brought up to 40 ul by adding 30 ul of 0.1% formic acid (FA). 5 ul aliquots from the samples were used to make a 1:5 dilution with MALDI matrix as described above. […] The temperature was raised in 1° C. increments from 25° C. to 95° C. and fluorescence was measured at 530 nm. Derivative Tm was determined using Protein Thermal Shift Software version 1.3 by Applied Biosystems and then were analyzed with Prism 6 (GraphPad Software Inc.)."}, "UBE2N C87S": {"molecular_target": "T2, UBE2N C87S (Homo sapiens, UniProt P61088, C87S)", "T2 construct": "purchased Genescript", "T2 sequence (P61088 whole entry C87S)": "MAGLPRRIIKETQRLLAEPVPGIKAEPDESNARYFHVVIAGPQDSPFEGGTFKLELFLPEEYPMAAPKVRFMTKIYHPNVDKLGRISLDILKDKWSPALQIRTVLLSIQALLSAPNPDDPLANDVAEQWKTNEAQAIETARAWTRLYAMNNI", "assay": "Differential scanning fluorimetry (DSF)", "format": "binding", "experimental": "as §1"}}, "data": [{"smiles": "CCc1ccc(C(=O)C=CSc2nc3ccc(C)cc3[nH]2)cc1", "note": "[UC-764864, 1-(4-ethylphenyl)-3-[(6-methyl-1H-benzimidazol-2-yl)sulfanyl]prop-2-en-1-one]", "values": [{"measurement": "ubiquitination levels of other Ub-conjugating enzymes", "setting": "MOLM-13 cells; MOLM-13", "value": "did not significantly alter"}, {"measurement": "ubiquitination of UBE2N at Lys-92", "setting": "MOLM-13 cells; MOLM-13, P<0.01", "value": "significantly reduced"}]}, {"smiles": "COc1ccc(C(=O)C=CSc2nc3ccc(C)cc3[nH]2)cc1", "note": "[UC-764865, 1-(4-methoxyphenyl)-3-[(6-methyl-1H-benzimidazol-2-yl)sulfanyl]prop-2-en-1-one]", "values": [{"measurement": "change in melting temperature (Tm)", "setting": "UBE2N wild type", "value": "−2", "unit": "C degrees"}, {"measurement": "change in Tm of UBE2N(C87S)", "setting": "UBE2N C87S", "value": "did not change"}]}]}
